Among the data in patent US20170280720A1, “ARGININE […] INHIBITORS AND USES THEREOF” (EPIZYME, INC., priority 2014, published 2017) are IC50 values, retold here.

The test has as its target T1, human PRMT1 (Homo sapiens, UniProt Q99873).
T1 construct: GST-tagged PRMT1; made in house; host or cells: High Five insect cells (baculovirus, pFastBacI)
Kind of test: PRMT1 biochemical assay (3H-SAM Flashplate, peptide substrate). To be noted: read-out: PRMT1_ IC50. In a few lines:
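FLAG-tagged full-length human PRMT1 (0.5 nM, GST-tagged, insect-cell expressed) preincubated 30 min at RT with compound, then biotinylated histone H4 36-50 peptide (20 nM) plus 200 nM 3H-SAM and 1.5 uM SAM in Bicine pH 7.6, 2% DMSO. 3H-methylated peptide captured on streptavidin Flashplate; IC50 from 3/4-parameter fit.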

T1 sequence (Q99873 with tags, fused parts or gaps): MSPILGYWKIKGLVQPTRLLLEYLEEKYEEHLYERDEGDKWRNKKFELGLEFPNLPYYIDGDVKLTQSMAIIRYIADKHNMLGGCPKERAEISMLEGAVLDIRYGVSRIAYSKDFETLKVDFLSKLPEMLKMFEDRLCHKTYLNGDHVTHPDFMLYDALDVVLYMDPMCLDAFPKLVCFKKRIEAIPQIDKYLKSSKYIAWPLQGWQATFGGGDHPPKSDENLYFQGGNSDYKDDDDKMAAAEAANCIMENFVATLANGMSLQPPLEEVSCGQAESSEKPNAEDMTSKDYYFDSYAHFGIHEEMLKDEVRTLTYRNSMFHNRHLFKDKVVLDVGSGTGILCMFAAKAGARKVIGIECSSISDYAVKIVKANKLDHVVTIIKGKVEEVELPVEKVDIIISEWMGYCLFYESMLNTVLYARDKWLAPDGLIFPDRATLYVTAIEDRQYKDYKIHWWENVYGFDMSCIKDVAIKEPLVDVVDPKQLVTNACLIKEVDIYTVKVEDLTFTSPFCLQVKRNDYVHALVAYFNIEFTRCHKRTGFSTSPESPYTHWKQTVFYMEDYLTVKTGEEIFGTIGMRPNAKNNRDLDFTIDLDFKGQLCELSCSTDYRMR

On to `COc1nc(C)cc(C)c1CNC(=O)c1cc(-c2cccc(CNCCN)c2)nc2c1cnn2C(C)C` [Compound 391], for which the half-maximal inhibitory concentration (IC50) (in general, the point on the concentration scale where inhibition reaches its midpoint) worked out at 1220 nM.
`CNCCN(C)Cc1cccc(-c2nc(NCc3nccs3)c3cnn(C4CC4)c3n2)c1` [Compound 2]: the IC50 is 21.7 nM.
The figure for `CNCCN(C)Cc1cccc(-c2cc(C(=O)NCCC(=O)NCc3c(C)cc(C)[nH]c3=O)c3cnn(C(C)C)c3n2)c1` [Compound 384] is 220 nM.
The value for `CNCCN(C)Cc1ccc(-c2cncc(C(=O)NCc3c(C)cc(C)[nH]c3=O)c2)cc1` [Compound 373] was 64.7 nM; that for `Cc1cc(C)c(CNC(=O)c2cc(-c3cccc(CN(C)CCN)c3)nc3c2cnn3C(C)C)c(=O)[nH]1` [Compound 360] was 254 nM.
In the case of `CNCCN(C)Cc1cccc(-c2cc(C(=O)NCCCCC(=O)NCc3c(C)cc(C)[nH]c3=O)c3cnn(C(C)C)c3n2)c1` [Compound 385], the IC50 amounted to 232 nM.
For the compound `CNCCN(C)Cc1ccc(-c2cc(C(=O)NCc3c(C)cc(C)[nH]c3=O)c(C)c3n[nH]cc23)cc1` [Compound 362], the half-inhibitory concentration (IC50) was found to be 104 nM.
Consider `Cc1cc(C)c(CNC(=O)c2cc(-c3cccc(CNCCN)c3)cc3[nH]ncc23)c(=O)[nH]1` [Compound 366], for which the IC50 stood at 2400 nM.
The figure for `CNCCN(C)Cc1cccc(-c2cc(C(=O)NCCCCCC(=O)NCc3c(C)cc(C)[nH]c3=O)c3cnn(C(C)C)c3n2)c1` [Compound 382] is 177 nM; for `Cc1cc(C)c(CNC(=O)c2cc(-c3cccc(CN(C)CCN(C)C)c3)nc3c2cnn3C(C)C)c(=O)[nH]1` [Compound 361] it is 4270 nM; for `Cc1cc(C)c(CNC(=O)c2cc(CNCCN(C)C)cc3c2cnn3C2CCCC2)c(=O)[nH]1` [Compound 371] it is 11800 nM.
The value for `CNCCN(C)Cc1cccc(-c2cc(C(=O)NCCCC(=O)NCc3c(C)cc(C)[nH]c3=O)c3cnn(C(C)C)c3n2)c1` [Compound 383] was 212 nM.
The value for `CNCCN(C)Cc1cccc(-c2cc(C(=O)NCc3c(C)cc(C)[nH]c3=O)c(C)c3[nH]ncc23)c1` [Compound 372] was 59.6 nM.
In the case of `CNCCN(C)Cc1ccc(-c2cc(C(=O)NCc3c(C)cc(C)[nH]c3=O)c(C)c3nn(C4CCCC4)cc23)cc1` [Compound 370], the half-maximal inhibitory concentration (IC50) came out at 418 nM.
As to `CNCCN(C)Cc1cccc(-c2cc(C(=O)NCc3c(C)cc(C)[nH]c3=O)c3cnn(C(C)C)c3n2)c1` [Compound 368], the half-inhibitory concentration (IC50) stood at 86.6 nM.
The figure for `COc1nc(C)cc(C)c1CNC(=O)c1cc(-c2cccc(CN(C)CCN(C)C)c2)nc2c1cnn2C(C)C` [Compound 386] is 1610 nM; for `Cc1cc(C)c(CNC(=O)c2cc(-c3ccc(CNCCN(C)C)cc3)nc3c2cnn3C(C)C)c(=O)[nH]1` [Compound 359] it is 4660 nM.
The figure for `Cc1cc(C)c(CNC(=O)c2cncc(-c3ccc(CN(C)CCN)cc3)c2)c(=O)[nH]1` [Compound 374] is 73.1 nM; for `Cc1cc(C)c(CNC(=O)c2cc(-c3cccc(CNCCN)c3)nc3c2cnn3C(C)C)c(=O)[nH]1` [Compound 365] it is 7490 nM.
Consider `Cc1cc(C)c(CNC(=O)c2cncc(-c3ccc(CN(C)CCN(C)C)cc3)c2)c(=O)[nH]1` [Compound 378], for which the half-inhibitory concentration (IC50) was 297 nM.
Consider `CNCCN(C)Cc1cccc(-c2cc(C(=O)NCc3c(C)cc(C)[nH]c3=O)c3cnn(C(C)C)c3c2)c1` [Compound 367], for which the half-inhibitory concentration (IC50) turned out to be 183 nM.
The figure for `Cc1cc(C)c(CNC(=O)c2cncc(-c3ccc(CNCCN)cc3)c2)c(=O)[nH]1` [Compound 379] is 335 nM.
